# Experimental data: US10660898B2, “Benzimidazole derivatives as PI3 kinase inhibitors” (GLAXOSMITHKLINE LLC, priority 2010, dated 2020)
# Experiments:
# BT549 = assay: Anchorage independent soft agar tumor growth assay; assay type: cell-based; details: BT549 breast carcinoma; PTEN p.V275fs*1, No protein; percent of DMSO-treated control
# CHL-1 = assay: Anchorage independent soft agar tumor growth assay; assay type: cell-based; details: CHL-1 skin melanoma, PTEN Wild-type, Protein
# Protocol: (§1) Cellular Assays—Cell Growth Inhibition Assay in PTEN Wild-Type or PTEN Deficient Tumor Cell Lines Twenty-two Phosphatase and Tensin Homolog (PTEN) wild-type or PTEN deficient tumor cell lines were cultured generally according to instructions supplied by cell culture supplier American Type Culture Collection, Manassas, Va., with 10% fetal bovine serum at 5% CO2 and 37° C. Cells were seeded into either a T-75 or a T-175 flask 3-4 days prior to 96-well assay plating such that the flasks were approximately 70-80% confluent of the time of harvest. Cells were harvested using 0.25% trypsin-EDTA (Invitrogen #25200056). Trypan Blue exclusion staining was used to determine cell number. Viable cells were plated in clear, flat bottom 96-well plates (BD #353075) under anchorage independent conditions at 2,000-10,000 cells per well depending on the cell line. To generate anchorage independent growth conditions, a 5% agar stock solution in water was made and autoclaved to melt and sterilize. From the 5% agar solution, a 0.6% agar/media+10% fetal bovine serum (FBS) solution was made to generate a bottom agar layer in the plates to prevent cell attachment. Seventy five microliters per well of the 0.6% agar-media solution was added to the plates. After solidification, a cell solution of 266,870 to 1, 334,022 cells (depending on the cell line) in 10 ml of 0.3% agar/media+10% FBS was made and 75 μl of the cell/media/agar suspension was added to the plates. After the cell layer solidified, 50 μl of media+10% FBS was added to the top of the cells. A 0.3% Brij 35 (Sigma B4184) solution in media+10% FBS was added to column 12 as a background subtraction control. The cells were incubated overnight at 5% CO2 and 37° C. The next day one plate of cells was processed at the time of compound addition to quantify the starting number of cells (T=0 or T0). […] Three hundred microliters of media was added to the compound dilutions. Ten microliters per well of the serial dilutions was added to the cells and the plates incubated for 6 days at 5% CO2 and 37° C. […] Following the 6-day incubation, 20 μl of Alamar Blue (Invitrogen # DAL1100) was added to the cells, incubated at 5% CO2 and 37° C. for 6 hours and the plates read on a Spectramax (Gemini EM) at 530 nm (excitation) and 590 nm (emission) with the auto cut-off disabled. For analysis of cell growth inhibition dose response curves, the data was plotted as the percent of the DMSO-treated control samples (DMSO samples set to 100%). […] Values from wells containing 0.3% Brij 35 (under anchorage independent conditions) were subtracted from all samples for background correction.
# HCC70 = assay: Anchorage independent soft agar tumor growth assay; assay type: cell-based; details: HCC70 breast carcinoma, PTEN p.F90fs*9, No protein
# Protocol: as §1
# LOXIMVI = assay: Anchorage independent soft agar tumor growth assay; assay type: cell-based; details: LOXIMVI skin melanoma, PTEN Wild-type, Protein
# Protocol: as §1
# SW1783 = assay: Anchorage independent soft agar tumor growth assay; assay type: cell-based; details: SW1783 CNS glioblastoma, PTEN p.R233*, No protein
# Protocol: as §1
# UACC-62 = assay: Anchorage independent soft agar tumor growth assay; assay type: cell-based; details: UACC-62 skin melanoma, PTEN p.P248fs*5, No protein
# Protocol: as §1
# PC-3 = assay: Anchorage independent soft agar tumor growth assay; assay type: cell-based, human; details: PC-3 prostate carcinoma, PTEN Loss, No protein
# Protocol: Cellular Assays—Cell Growth Inhibition Assay in PTEN Wild-Type or PTEN Deficient Tumor Cell Lines Twenty-two Phosphatase and Tensin Homolog (PTEN) wild-type or PTEN deficient tumor cell lines were cultured generally according to instructions supplied by cell culture supplier American Type Culture Collection, Manassas, Va., with 10% fetal bovine serum at 5% CO2 and 37° C. Cells were seeded into either a T-75 or a T-175 flask 3-4 days prior to 96-well assay plating such that the flasks were approximately 70-80% confluent of the time of harvest. Cells were harvested using 0.25% trypsin-EDTA (Invitrogen #25200056). Trypan Blue exclusion staining was used to determine cell number. Viable cells were plated in clear, flat bottom 96-well plates (BD #353075) under anchorage independent conditions at 2,000-10,000 cells per well depending on the cell line. To generate anchorage independent growth conditions, a 5% agar stock solution in water was made and autoclaved to melt and sterilize. […] The next day one plate of cells was processed at the time of compound addition to quantify the starting number of cells (T=0 or T0). […] Following the 6-day incubation, 20 μl of Alamar Blue (Invitrogen # DAL1100) was added to the cells, incubated at 5% CO2 and 37° C. for 6 hours and the plates read on a Spectramax (Gemini EM) at 530 nm (excitation) and 590 nm (emission) with the auto cut-off disabled. […]
# pAKT (pAKT/tAKT) = assay: Pharmacodynamic effects in PC-3 xenograft tumors (MSD phospho/total AKT); assay type: in vivo, mouse; details: 3 mg/kg or 10 mg/kg, 1, 2, 4, 6, 8, 10, and 24 hours
# Protocol: Female nude mice (Charles River Laboratories, Wilmington, Del.; strain CD-1-Foxn1, 6 weeks of age) were injected subcutaneously with 2 million PC-3 (human prostate carcinoma) cells mixed 1:1 with Matrigel in the flank. Tumors were allowed to grow for approximately 5 weeks. […] The tumor was excised. Half of each tumor was immediately processed by Medicon (BD Catalog #340592) in 1 mL Meso-Scale Discovery (MSD) lysis buffer with protease inhibitors (Roche complete protease cocktail, cat #04 693 116 001) and phosphatase inhibitors (Sigma, cat # P2850 and P-5726) for 30-60 seconds and transferred to 1.5 mL Eppendorf tubes. Tubes remained on wet ice until they were centrifuged for 10 minutes at 4° C. at maximum speed in a tabletop refrigerated centrifuge. Tumor lysates were serially diluted in 96-well polypropylene plates on wet ice. Lysates (150 μL) were loaded in row 1; rows 2-12 were loaded with 75 μL of complete Meso Scale Discovery (MSD) lysis buffer (supplied in MSD kit; # […]-3). […] Plates were washed as described above, before the addition of 150 µL of MSD read buffer and read immediately on a 6000 MSD plate reader. […] P/T AKT was calculated as shown: (phospho AKT(Ser473) signal)/[(phospho AKT(Ser473) signal)+(total AKT signal)]. […] Percent inhibition was calculated for each group as follows: 100-[(sample P/T AKT value)/(vehicle P/T AKT value)]*100.
# [1] = percent of DMSO-treated control
# [2] = Homo sapiens, 144 h, 6-day incubation, Alamar Blue, read-out: Compound EC50 (nM) ± StDev
smiles,measurement,setting,value
"Cc1c(Cn2c(C)nc3c(C(=O)O)cc(N4CCOCC4)cc32)cccc1C(F)(F)F [Example 31, 2-methyl-1-{[2-methyl-3-(trifluoromethyl)phenol]methyl}-6-(4-morpholinyl)-1H-benzimidazole-4-carboxylic acid]",Compound Ymin ± StDev,BT549,52 ± 7
same,Compound Ymin ± StDev,CHL-1; [1],82 ± 2
same,EC50,CHL-1; [2],14 ± 6 nM
same,Compound Ymin ± StDev,HCC70; [1],27 ± 8
same,EC50,HCC70; [2],53 ± 21 nM
same,EC50,"LOXIMVI; Homo sapiens, LOX IMVI, 144 h, 6-day incubation, Alamar Blue, read-out: Compound EC50 (nM) ± StDev",> 30700 nM
same,Compound Ymin ± StDev,LOXIMVI; [1],>90
same,EC50,SW1783; [2],10 ± 3 nM
same,Compound Ymin ± StDev,SW1783; [1],69 ± 4
same,EC50,UACC-62; [2],23 ± 27 nM
same,Compound Ymin ± StDev,UACC-62; [1],76 ± 18
same,EC50,PC-3; [2],27 ± 12 nM
same,Compound Ymin ± StDev,PC-3; [1],82 ± 13
same,Inhibition of the pharmacodynamic marker pAKT (pAKT/tAKT),pAKT (pAKT/tAKT),dose dependent inhibition
